These results are taken from patent US11034692B1 (Genentech, Inc., priority 2017, dated 2021).

This experiment addresses HPK1 (Homo sapiens, UniProt Q92918). The experiment in a line: HPK1 Lantha Binding Assay ("Lanth"). Put shortly:
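TR-FRET tracer displacement with 2 nM GST-tagged kinase, 2 nM Eu-anti-GST antibody and 15 nM Tracer222 at 23 C. Enzyme–antibody preincubated 1 h with compound, then tracer added for 1 h; 340 nm excitation, 615/665 nm emission. Ki from Morrison fit over an 11-point 5-fold dilution.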

[1] abbreviates: Table B1-1, read-out: HPK1 Ki (μM) (Lanth).
The mark [2] stands for this setting: Table B1-2, read-out: HPK1 Ki, L = Lanth.

Where two headings read alike, the source gives them in different places.

Chain of HPK1 (Q92918 whole entry, looked up): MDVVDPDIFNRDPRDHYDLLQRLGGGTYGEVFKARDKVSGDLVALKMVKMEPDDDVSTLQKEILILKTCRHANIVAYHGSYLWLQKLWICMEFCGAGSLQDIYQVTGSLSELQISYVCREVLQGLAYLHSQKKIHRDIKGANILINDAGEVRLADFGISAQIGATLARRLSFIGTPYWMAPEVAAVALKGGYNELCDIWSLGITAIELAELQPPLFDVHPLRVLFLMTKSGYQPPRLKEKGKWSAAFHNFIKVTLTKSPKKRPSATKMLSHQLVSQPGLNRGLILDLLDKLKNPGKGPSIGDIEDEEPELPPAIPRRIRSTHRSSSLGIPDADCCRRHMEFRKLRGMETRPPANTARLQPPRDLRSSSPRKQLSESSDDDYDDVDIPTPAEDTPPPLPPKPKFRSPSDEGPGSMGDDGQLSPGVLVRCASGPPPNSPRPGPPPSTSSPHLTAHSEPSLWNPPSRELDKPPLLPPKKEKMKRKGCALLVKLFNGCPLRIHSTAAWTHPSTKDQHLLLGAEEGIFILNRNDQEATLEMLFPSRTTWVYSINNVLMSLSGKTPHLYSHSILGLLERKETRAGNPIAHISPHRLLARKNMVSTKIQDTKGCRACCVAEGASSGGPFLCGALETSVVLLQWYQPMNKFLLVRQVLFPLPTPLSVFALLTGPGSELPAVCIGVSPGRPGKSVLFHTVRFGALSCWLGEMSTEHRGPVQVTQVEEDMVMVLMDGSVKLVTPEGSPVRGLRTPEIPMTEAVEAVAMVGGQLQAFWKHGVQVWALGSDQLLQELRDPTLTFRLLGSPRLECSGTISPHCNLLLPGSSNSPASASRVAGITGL

A word on the Ki: it is a measure of affinity in units of concentration, obtained from inhibition or displacement. As for `Cc1c(N)cncc1-c1cc2cc(NC(=O)[C@@H]3C[C@H]3C#N)ncc2c(N)n1` (racemic) [Compound 165, (±)-trans-N-(8-amino-6-(5-amino-4-methylpyridin-3-yl)-2,7-naphthyridin-3-yl)-2-cyanocyclopropanecarboxamide], under setting [1], the inhibition constant Ki came to 0.95 nM. Turning to `CC(=O)N1CCC([C@@H]2C[C@H]2C(=O)Nc2cc3cc(-c4cnccc4C)nc(N)c3cn2)CC1` (racemic) [Compound 166, (±)-trans-2-(1-acetylpiperidin-4-yl)-N-(8-amino-6-(4-methylpyridin-3-yl)-2,7-naphthyridin-3-yl)cyclopropanecarboxamide], the Ki under setting [1] stood at 1.5 nM. Take `Cc1cc(-c2ccc[nH]c2=O)ncc1-c1cc2cc(NC(=O)[C@H]3C[C@H]3F)ncc2c(N)n1` (racemic) [Compound 167, (±)-cis-N-(8-amino-6-(4-methyl-6-(2-oxo-1,2-dihydropyridin-3-yl)pyridin-3-yl)-2,7-naphthyridin-3-yl)-2-fluorocyclopropanecarboxamide]: the inhibition constant Ki under setting [1] came to 9.4 nM. For `Cc1ccncc1-c1cc2cc(NC(=O)NC(C)CO)ncc2c(N)n1` (racemic) [Compound 177, 1-(8-amino-6-(4-methylpyridin-3-yl)-2,7-naphthyridin-3-yl)-3-(1-hydroxypropan-2-yl)urea], the inhibition constant (Ki) under setting [1] is 8.5 nM. As to `Cc1ccncc1-c1cc2cc(NC(=O)Nc3cnn(C(C)C#N)c3)ncc2c(N)n1` (racemic) [Compound 178, 1-[8-amino-6-(4-methyl-3-pyridyl)-2,7-naphthyridin-3-yl]-3-[1-(1-cyanoethyl)pyrazol-4-yl]urea], under setting [1], the inhibition constant Ki was 0.25 nM. As for `Cc1cc(N2CCC(N)C2)ncc1-c1cc2cc(NC(=O)C3CC3F)ncc2c(N)n1` (racemic) [Compound 179, (±)-cis-N-[8-amino-6-[6-[(3S)-3-aminopyrrolidin-1-yl]-4-methyl-3-pyridyl]-2,7-naphthyridin-3-yl]-2-fluoro-cyclopropanecarboxamide], under setting [1], the Ki is 2.9 nM. The same measure, in the same setting: the figure for `CNC(=O)c1c(C)c(-c2cc3cc(NC(=O)[C@H]4C[C@@H]4C#N)ncc3c(N)n2)c(C)n1C` (racemic) [Compound 180, (±)-trans-4-[1-amino-6-[[trans-2-cyanocyclopropanecarbonyl]amino]-2,7-naphthyridin-3-yl]-N,1,3,5-tetramethyl-pyrrole-2-carboxamide] is 44 nM. For the molecule `N#C[C@H]1C[C@@H]1C(=O)Nc1cc2cc(-c3cnccc3CCO)nc(N)c2cn1` (racemic) [Compound 191, (±)-trans-N-(8-amino-6-(4-(2-hydroxyethyl)pyridin-3-yl)-2,7-naphthyridin-3-yl)-2-cyanocyclopropanecarboxamide], under setting [1], the Ki was found to be 2.7 nM. `Cc1ccncc1-c1nc(N)c2cnc(NC(=O)C3CC3)cc2c1C1=CC(O)CC1` (racemic) [Compound 204, N-(8-amino-5-(3-hydroxycyclopent-1-enyl)-6-(4-methylpyridin-3-yl)-2,7-naphthyridin-3-yl)cyclopropanecarboxamide]: the Ki under setting [1] stood at 0.99 nM. For the molecule `Cc1ccncc1-c1nc(N)c2cnc(NC(=O)[C@@H]3C[C@H]3CC#N)cc2c1C` (racemic) [Compound 205, (+/−)-trans-N-(8-amino-5-methyl-6-(4-methylpyridin-3-yl)-2,7-naphthyridin-3-yl)-2-(cyanomethyl)cyclopropanecarboxamide], the Ki under setting [1] was found to be 0.0881 nM. For the molecule `Cc1ccncc1-c1nc(N)c2cnc(NC(=O)[C@H]3C[C@@H]3CC#N)cc2c1Br` (racemic) [Compound 210, (+/−)-N-(8-amino-5-bromo-6-(4-methylpyridin-3-yl)-2,7-naphthyridin-3-yl)-2-(cyanomethyl)cyclopropanecarboxamide], the Ki under setting [1] was determined as 0.258 nM. As for `Cc1ccncc1-c1cc2cc(NC(=O)[C@@H]3C[C@H]3CC#N)ncc2c(N)n1` (racemic) [Compound 212, (+/−)-trans-N-(8-amino-6-(4-methylpyridin-3-yl)-2,7-naphthyridin-3-yl)-2-(cyanomethyl)cyclopropanecarboxamide], the inhibition constant (Ki) under setting [1] came out at 0.685 nM. `Cc1ccncc1-c1cc2cc(Nc3cnn(C(C)CO)c3)ncc2c(N)n1` (racemic) [Compound 213, (+/−)-2-(4-(8-amino-6-(4-methylpyridin-3-yl)-2,7-naphthyridin-3-ylamino)-1H-pyrazol-1-yl)propan-1-ol]: the inhibition constant (Ki) under setting [1] was 0.957 nM.

With `CNc1cncc(-c2cc3cc(NC(=O)[C@@H]4C[C@@H]4F)ncc3c(N)n2)c1C` (racemic) [Compound 216, (+/−)-cis-N-(8-amino-6-(4-methyl-5-(methylamino)pyridin-3-yl)-2,7-naphthyridin-3-yl)-2-fluorocyclopropanecarboxamide], the Ki under setting [1] turned out to be 3.53 nM.

In the case of `CC(=O)N1CCC(n2cc(Nc3cc4cc(-c5cnccc5C)nc(N)c4cn3)cn2)C1` (racemic) [Compound 218, (+/−)-1-(3-(4-(8-amino-6-(4-methylpyridin-3-yl)-2,7-naphthyridin-3-ylamino)-1H-pyrazol-1-yl)pyrrolidin-1-yl)ethanone], the inhibition constant Ki under setting [1] worked out at 0.02 nM. Regarding `Cc1ccncc1-c1cc2cc(Nc3cnn([C@H]4CCN(C5COC5)C[C@@H]4O)c3)ncc2c(N)n1` (racemic) [Compound 220, (+/−)-trans-4-(4-(8-amino-6-(4-methylpyridin-3-yl)-2,7-naphthyridin-3-ylamino)-1H-pyrazol-1-yl)-1-(oxetan-3-yl)piperidin-3-ol], the Ki under setting [1] amounted to 0.592 nM.

On to `Cc1ccncc1-c1cc2cc(Nc3cc(C(C)O)n(C)n3)ncc2c(N)n1` (racemic) [Compound 221, (+/−)-1-(3-(8-amino-6-(4-methylpyridin-3-yl)-2,7-naphthyridin-3-ylamino)-1-methyl-1H-pyrazol-5-yl)ethanol], for which, under setting [1], the Ki is 0.026 nM. Regarding `N#Cc1ccccc1-c1cc2cc(NC(=O)[C@H]3C[C@@H]3C#N)ncc2c(N)n1` (racemic) [Compound 224, (+/−)-trans-N-(8-amino-6-(2-cyanophenyl)-2,7-naphthyridin-3-yl)-2-cyanocyclopropanecarboxamide], the inhibition constant Ki under setting [1] came to 15.2 nM. For `CC(C)(O)Cc1ccncc1-c1cc2cc(NC(=O)[C@H]3C[C@@H]3C#N)ncc2c(N)n1` (racemic) [Compound 225, (+/−)-trans-N-(8-amino-6-(4-(2-hydroxy-2-methylpropyl)pyridin-3-yl)-2,7-naphthyridin-3-yl)-2-cyanocyclopropanecarboxamide], under setting [1], the Ki was 84.2 nM. Turning to `CNC(=O)c1cncc(-c2cc3cc(NC(=O)[C@@H]4C[C@@H]4F)ncc3c(N)n2)c1C` (racemic) [Compound 226, cis-5-(1-amino-6-(-2-fluorocyclopropanecarboxamido)-2,7-naphthyridin-3-yl)-N,4-dimethylnicotinamide], the Ki under setting [1] is 58.6 nM.

With `N#CCc1ccncc1-c1cc2cc(NC(=O)[C@H]3C[C@@H]3C#N)ncc2c(N)n1` (racemic) [Compound 227, (+/−)-trans-N-(8-amino-6-(4-(cyanomethyl)pyridin-3-yl)-2,7-naphthyridin-3-yl)-2-cyanocyclopropanecarboxamide], the inhibitory constant (Ki) under setting [1] worked out at 38.7 nM. `COCc1ccncc1-c1cc2cc(NC(=O)[C@H]3C[C@@H]3C#N)ncc2c(N)n1` (racemic) [Compound 228, (+/−)-trans-N-(8-amino-6-(4-(methoxymethyl)pyridin-3-yl)-2,7-naphthyridin-3-yl)-2-cyanocyclopropanecarboxamide]: under setting [1], the Ki was found to be 11 nM. Same read-out and setting: the figure for `Cc1ccc(O)cc1-c1cc2cc(NC(=O)[C@H]3C[C@@H]3c3cnn(C)c3)ncc2c(N)n1` (racemic) [Compound 268, (+/−)-trans-N-[8-amino-6-(5-hydroxy-2-methylphenyl)-2,7-naphthyridin-3-yl]-2-(1-methyl-1H-pyrazol-4-yl)cyclopropane-1-carboxamide] is 0.147 nM. For `Cc1cc(C(=O)O)ncc1-c1cc2cc(NC(=O)[C@H]3C[C@@H]3c3cnn(C)c3)ncc2c(N)n1` (racemic) [Compound 342, (±)-trans-5-(1-amino-6-((1S,2S)-2-(1-methyl-1H-pyrazol-4-yl)cyclopropane-1-carboxamido)-2,7-naphthyridin-3-yl)-4-methylpicolinic acid], the Ki under setting [1] was 1.43 nM. On to `CNC(=O)c1cc(C)c(-c2cc3cc(NC(=O)[C@H]4C[C@@H]4c4cnn(C)c4)ncc3c(N)n2)cn1` (racemic) [Compound 346, (±)-5-(1-amino-6-((trans)-2-(1-methyl-1H-pyrazol-4-yl)cyclopropane-1-carboxamido)-2,7-naphthyridin-3-yl)-N,4-dimethylpicolinamide], for which the inhibitory constant (Ki) under setting [1] came to 2.44 nM. For `Cc1cccc(CC#N)c1-c1cc2cc(NC(=O)[C@H]3C[C@@H]3c3cnn(C)c3)ncc2c(N)n1` (racemic) [Compound 382, (+/−)-trans-N-(8-amino-6-(2-(cyanomethyl)-6-methylphenyl)-2,7-naphthyridin-3-yl)-2-(1-methyl-1H-pyrazol-4-yl)cyclopropane-1-carboxamide], the inhibition constant Ki under setting [2] is 14 nM.

`Cc1ccnc(Cc2ccccc2)c1-c1cc2cc(NC(=O)[C@H]3C[C@@H]3c3cnn(C)c3)ncc2c(N)n1` (racemic) [Compound 427, (+/−)-trans-N-(8-amino-6-(2-benzyl-4-methylpyridin-3-yl)-2,7-naphthyridin-3-yl)-2-(1-methyl-1H-pyrazol-4-yl)cyclopropane-1-carboxamide]: the Ki under setting [2] turned out to be 0.78 nM. Regarding `Cc1ccncc1-c1cc2cc(NC(=O)[C@@H]3C[C@H]3F)ncc2c(N)n1` (single isomer, unassigned) [Compound 107, (trans)-N-(8-amino-6-(4-methylpyridin-3-yl)-2,7-naphthyridin-3-yl)-2-fluorocyclopropane-1-carboxamide], the inhibition constant (Ki) under setting [1] came out at 0.654 nM.

Take `Cn1cc([C@H]2C[C@@H]2C(=O)Nc2cc3c(Cl)c(-c4cnccc4CCO)nc(N)c3cn2)cn1` (single isomer, unassigned) [Compound 332]: the Ki under setting [1] was 5.62 nM.

With `Cc1ccc2c(c1-c1cc3cc(NC(=O)[C@H]4C[C@@H]4CC#N)ncc3c(N)n1)CC[C@@]2(C)O` (single isomer, unassigned) [Compound 353], the Ki under setting [2] was determined as 29 nM. Turning to `Cc1cccc(Cl)c1-c1cc2cc(NC(=O)[C@H]3C[C@@H]3CC#N)ncc2c(N)n1` (single isomer, unassigned) [Compound 362], under setting [2], the Ki was 0.22 nM.
